Results published in US4200645A, “Pyrrole derivatives” (Beecham Group Limited, priority 1977, dated 1980).
Read-outs that look alike come from different tables or passages of the source. One block for each compound: values may come before it.

How the values were obtained:
[1] = test system: phenylquinone induced writhing; test: phenylquinone induced writhing test for analgesic activity; type: in vivo; conditions: oral, mice; for ED50: Mus musculus
Source text: a. When tested on a conventional phenylquinone induced writhing test for analgesic activity, the compound of Example 1 and tolmetin produced the following ED50 values when administered orally to mice: […]

stomachs = test: gastric erosion test after oral dosing; type: in vivo, rats; conditions: for No. of Animals Showing Erosions: groups of 10 rats, 4 hour contact time
Protocol: b. Groups of 10 rats were starved overnight and then dosed orally with the test compound suspended in 0.7% methylcellulose. After a 4 hour contact time the animals were killed and the stomachs removed, inflated with 0.9% saline, cut open after 30 minutes and examined for erosions. The following results, expressed as the number of animals in each group showing damage, were obtained: […]

[2] = test system: carrageenin induced oedema; test: carrageenin induced oedema test for anti-inflammatory activity; type: in vivo; conditions: Rattus norvegicus; per oral in rats; read-out: dose at which active (anti-inflammatory)
Protocol: c. When tested on a conventional carrageenin induced oedema test foranti-inflammatory activity, the compound of Example 1 was classed as active at 10 mg/kg per oral in rats (as compared to about 5 mg/kg for tolmetin).

rats = test: toxicity observations during testing in rats; type: in vivo; conditions: up to 100 mg/kg per day for 6 days
[3] = test system: cotton pellet induced granuloma; test: cotton pellet induced granuloma test; type: in vivo
Source text: (§1) When tested on a conventional cotton pellet induced granuloma test the results shown hereafter were obtained. In these tests hydrocortisone (HC) was used as a positive control.

[4] = overt toxic effects during testing (Demonstration 2); type: in vivo
Source text: as §1

[5] = in vivo
[6] = J. Pharmacol. Exptl. Therap. 1973, 185, 127-138; cited from earlier work

Compound: CC(=O)CCc1ccc(C(=O)c2ccc(C)cc2)n1C [Example 1, 4-(1-Methyl-5-p-toluoyl-2-pyrryl)butan-2-one]
ED50 ([1]; Test A, read-out: ED50, Test A): 6.7 mg/kg
ED50 ([1]; Test B, read-out: ED50, Test B): 5.3 mg/kg
analgesic potency relative to tolmetin ([1]; from ED50 values): about half as potent as tolmetin
No. of Animals Showing Erosions (stomachs; 30 mg/kg oral): 0 No. of Animals
No. of Animals Showing Erosions (stomachs; 90 mg/kg oral): 1 No. of Animals
No. of Animals Showing Erosions (stomachs; 270 mg/kg oral): 1 No. of Animals
minimal effective dose [2]: 10 mg/kg
drug-induced lethalities (rats): No drug-induced lethalities have been observed

Compound: CC(=O)CCc1ccc(C(=O)c2ccc(Cl)cc2)n1C [Example 3, 4-(1-Methyl-5-p-chlorobenzoyl-2-pyrryl)butan-2-one]
Inhibition (cotton pellet granuloma) ([3]; 10 mg/kg): 42%
drug-induced lethalities ([4]; during testing): no drug-induced lethalities were observed
overt toxic effects ([4]; during testing): not found to exhibit any overt toxic effects
body weight gain ([4]; in vivo): no reduction in body weight gain was observed
thymus weight ([4]; in vivo): no change in thymus weight was observed

Compound: CC(=O)CCc1ccc(C(=O)c2cccs2)n1C [Example 4, 4-(1-Methyl-5-thien-2'-oyl-2-pyrryl)butan-2-one]
Inhibition (cotton pellet granuloma) ([3]; 10 mg/kg): 24%
drug-induced lethalities ([4]; during testing): no drug-induced lethalities were observed
body weight gain ([4]; in vivo): no reduction in body weight gain was observed
overt toxic effects ([4]; in vivo): not found to exhibit any overt toxic effects
thymus weight ([4]; in vivo): no change in thymus weight was observed

Compound: CC(=O)OC(C)CCc1ccc(C(=O)c2ccc(C)cc2)n1C (centres unmarked) [Example 6, 2-Acetoxy-4-(1-methyl-5-p-toluoyl-2-pyrryl)butane]
Inhibition (cotton pellet granuloma) ([3]; 50 mg/kg): 34%
drug-induced lethalities ([4]; during testing): no drug-induced lethalities were observed
overt toxic effects ([4]; during testing): not found to exhibit any overt toxic effects
body weight gain ([4]; in vivo): no reduction in body weight gain was observed
thymus weight ([4]; in vivo): no change in thymus weight was observed

Compound: Cc1ccc(C(=O)c2ccc(CCC3(C)OCCO3)n2C)cc1 [Example 7, 2-Methyl-2-[2-(1-methyl-5-p-toluoyl-2-pyrryl)ethyl]-1,3-dioxolane]
Inhibition (cotton pellet granuloma) ([3]; 50 mg/kg): 43%
drug-induced lethalities ([4]; during testing): no drug-induced lethalities were observed
overt toxic effects ([4]; during testing): not found to exhibit any overt toxic effects
body weight gain ([4]; in vivo): no reduction in body weight gain was observed
thymus weight ([4]; in vivo): no change in thymus weight was observed

Compound: C[C@]12CCC(=O)C=C1CC[C@@H]1[C@@H]2[C@@H](O)C[C@@]2(C)[C@H]1CC[C@]2(O)C(=O)CO [HC, hydrocortisone, reference compound]
Inhibition (cotton pellet granuloma) ([3]; 10 mg/kg): 43%

No. of Animals Showing Erosions (stomachs; 10 mg/kg oral): 2 No. of Animals
No. of Animals Showing Erosions (stomachs; 30 mg/kg oral): 6 No. of Animals
No. of Animals Showing Erosions (stomachs; 90 mg/kg oral): 10 No. of Animals
Compound: Cc1ccc(C(=O)c2ccc(CC(=O)O)n2C)cc1 [Tolmetin]
ED50 ([1]; Test A, read-out: ED50, Test A): 4.3 mg/kg
ED50 ([1]; Test B, read-out: ED50, Test B): 2.3 mg/kg
gastric irritancy relative to the compound of Example 1 (stomachs; oral, rats, "probably at least"): at least 10 times
minimal effective dose [2]: ~5 mg/kg
gastric irritancy [5]: causes gastric irritancy in test animals at doses not greatly exceeding the therapeutic dose
anti-inflammatory activity [6]: possess anti-inflammatory activity
